Patent US20250170090A1, “METHOD FOR PREVENTING OR TREATING DISEASE OR DISORDER ASSOCIATED WITH ANTINEOPLASTIC AGENT” (ONQUALITY PHARMACEUTICALS CHINA LTD., priority 2022, published 2025)
Where two headings read alike, the source gives them in different places.

Key:
HUVEC cells = assay: CCK-8 cell viability: alleviation of proliferative toxicity of anti-tumor agents on HUVEC cells (Tables 7-1, 7-2); assay type: cell-based; details: for activation at 100 µM: Homo sapiens, 24 h, percentage increase in viable cells vs anti-tumor agent alone, read-out: Response rate % (average)
In short: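 HUVEC cells were treated with anti-tumor agent (DMSO solvent) alone or combined with NO-NSAID (ethanol or water solvent), and NO-NSAID solvent controls were used for correction. After 24-48 h of culture, viability was read by CCK-8 to derive proliferative toxicity and how much NO-NSAID mitigated it.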

[1] = system: hand-foot syndrome induced by anti-tumor agents; assay: Prevention of hand-foot syndrome induced by anti-tumor agents in rats, NO-NSAID ointment on hind paws (Table 2-2); assay type: in vivo, SD rats; details: Rattus norvegicus, topical, read-out: Control rate; for responders at 0.5 %: ointment 0.50% wt; for responders at 1 %: ointment 1% wt; for responders at 2.5 %: ointment 2.50% wt; for responders at 5 %: ointment 5% wt
In short: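 Female SD rats (8 weeks, ~200 g; 10/group) received anti-tumour agents by daily oral gavage in Cremophor EL:ethanol 1:1 diluted ~3× with PBS. NO-NSAID or blank ointment was applied to hind paws once daily, 4 h restrained, then wiped off. Control rate = blank-group minus treated-group hand-foot syndrome incidence.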

[2] = Afatinib (10 μM), NO-NSAID 100 μM
[3] = Cabozantinib (5 μM), NO-NSAID 100 μM
[4] = Dabrafenib (10 μM), NO-NSAID 100 μM
[5] = Everolimus (5 μM), NO-NSAID 100 μM
[6] = Infigratinib (15 μM), NO-NSAID 100 μM
[7] = Lapatinib (5 μM), NO-NSAID 100 μM
[8] = Lenvatinib (10 μM), NO-NSAID 100 μM
[9] = Olmutinib (10 μM), NO-NSAID 100 μM
[10] = Regorafenib (5 μM), NO-NSAID 100 μM
[11] = Selumetinib (5 μM), NO-NSAID 100 μM
[12] = Sorafenib (5 μM), NO-NSAID 100 μM
[13] = Sunitinib (5 μM), NO-NSAID 100 μM
[14] = 120 h, Sorafenib 80 mg/kg once a day, Days 5
[15] = 432 h, Cabozantinib 50 mg/kg once a day, Days 18
[16] = 432 h, Lenvatinib 100 mg/kg twice a day, Days 18
[17] = 432 h, Nintedanib 110 mg/kg once a day, Days 18
[18] = 432 h, Regorafenib 90 mg/kg once a day, Days 18

COc1ccc2cc(C(C)C(=O)OCCCCO[N+](=O)[O-])ccc2c1 (stereo not drawn) [Compound A5]
NO-NSAID response rate % (average) (HUVEC cells; Afatinib (10 μM), NO-NSAID 0.1 μM): 24%
NO-NSAID response rate % (average) (HUVEC cells; Afatinib (10 μM), NO-NSAID 1 μM): 28%
NO-NSAID response rate % (average) (HUVEC cells; [2]): 69%
NO-NSAID response rate % (average) (HUVEC cells; Afatinib (10 μM), NO-NSAID 500 μM): 22%
NO-NSAID response rate % (average) (HUVEC cells; Cabozantinib (5 μM), NO-NSAID 0.1 μM): 1%
NO-NSAID response rate % (average) (HUVEC cells; Cabozantinib (5 μM), NO-NSAID 1 μM): 15%
NO-NSAID response rate % (average) (HUVEC cells; [3]): 60%
NO-NSAID response rate % (average) (HUVEC cells; Cabozantinib (5 μM), NO-NSAID 500 μM): 24%
NO-NSAID response rate % (average) (HUVEC cells; Dabrafenib (10 μM), NO-NSAID 0.1 μM): 27%
NO-NSAID response rate % (average) (HUVEC cells; Dabrafenib (10 μM), NO-NSAID 1 μM): 28%
NO-NSAID response rate % (average) (HUVEC cells; [4]): 65%
NO-NSAID response rate % (average) (HUVEC cells; Dabrafenib (10 μM), NO-NSAID 500 μM): 31%
NO-NSAID response rate % (average) (HUVEC cells; Everolimus (5 μM), NO-NSAID 0.1 μM): 0%
NO-NSAID response rate % (average) (HUVEC cells; Everolimus (5 μM), NO-NSAID 1 μM): −7%
NO-NSAID response rate % (average) (HUVEC cells; [5]): 28%
NO-NSAID response rate % (average) (HUVEC cells; Everolimus (5 μM), NO-NSAID 500 μM): −2%
activation at 100 µM (HUVEC cells; [2]): 69%
activation at 100 µM (HUVEC cells; Anlotinib (5 μM), NO-NSAID 100 μM): 57%
activation at 100 µM (HUVEC cells; Apatinib (10 μM), NO-NSAID 100 μM): 59%
activation at 100 µM (HUVEC cells; Axitinib (10 μM), NO-NSAID 100 μM): -2%
activation at 100 µM (HUVEC cells; [3]): 60%
activation at 100 µM (HUVEC cells; [4]): 65%
activation at 100 µM (HUVEC cells; Dacomitinib (5 μM), NO-NSAID 100 μM): 75%
activation at 100 µM (HUVEC cells; Encorafenib (5 μM), NO-NSAID 100 μM): 28%
activation at 100 µM (HUVEC cells; Erdafitinib (10 μM), NO-NSAID 100 μM): 43%
activation at 100 µM (HUVEC cells; [5]): 28%
activation at 100 µM (HUVEC cells; Famitinib (5 μM), NO-NSAID 100 μM): 35%
activation at 100 µM (HUVEC cells; Fruquintinib (10 μM), NO-NSAID 100 μM): 37%
activation at 100 µM (HUVEC cells; Gefitinib (10 μM), NO-NSAID 100 μM): 21%
activation at 100 µM (HUVEC cells; [6]): 48%
activation at 100 µM (HUVEC cells; [7]): 62%
activation at 100 µM (HUVEC cells; [8]): 32%
activation at 100 µM (HUVEC cells; [9]): 48%
activation at 100 µM (HUVEC cells; [10]): 83%
activation at 100 µM (HUVEC cells; [11]): 61%
activation at 100 µM (HUVEC cells; [12]): 1%
activation at 100 µM (HUVEC cells; [13]): 44%
activation at 100 µM (HUVEC cells; Vemurafenib (5 μM), NO-NSAID 100 μM): 24%
NO-NSAID response rate % (average) (HUVEC cells; Infigratinib (15 μM), NO-NSAID 0.1 μM): 28%
NO-NSAID response rate % (average) (HUVEC cells; Infigratinib (15 μM), NO-NSAID 1 μM): 30%
NO-NSAID response rate % (average) (HUVEC cells; [6]): 48%
NO-NSAID response rate % (average) (HUVEC cells; Infigratinib (15 μM), NO-NSAID 500 μM): 34%
NO-NSAID response rate % (average) (HUVEC cells; Lapatinib (5 μM), NO-NSAID 0.1 μM): 26%
NO-NSAID response rate % (average) (HUVEC cells; Lapatinib (5 μM), NO-NSAID 1 μM): 35%
NO-NSAID response rate % (average) (HUVEC cells; [7]): 62%
NO-NSAID response rate % (average) (HUVEC cells; Lapatinib (5 μM), NO-NSAID 500 μM): 36%
NO-NSAID response rate % (average) (HUVEC cells; Lenvatinib (10 μM), NO-NSAID 0.1 μM): 11%
NO-NSAID response rate % (average) (HUVEC cells; Lenvatinib (10 μM), NO-NSAID 1 μM): 44%
NO-NSAID response rate % (average) (HUVEC cells; [8]): 32%
NO-NSAID response rate % (average) (HUVEC cells; Lenvatinib (10 μM), NO-NSAID 500 μM): 16%
NO-NSAID response rate % (average) (HUVEC cells; Olmutinib (10 μM), NO-NSAID 0.1 μM): 19%
NO-NSAID response rate % (average) (HUVEC cells; Olmutinib (10 μM), NO-NSAID 1 μM): 34%
NO-NSAID response rate % (average) (HUVEC cells; [9]): 48%
NO-NSAID response rate % (average) (HUVEC cells; Olmutinib (10 μM), NO-NSAID 500 μM): 39%
NO-NSAID response rate % (average) (HUVEC cells; Regorafenib (5 μM), NO-NSAID 0.1 μM): 29%
NO-NSAID response rate % (average) (HUVEC cells; Regorafenib (5 μM), NO-NSAID 1 μM): 46%
NO-NSAID response rate % (average) (HUVEC cells; [10]): 83%
NO-NSAID response rate % (average) (HUVEC cells; Regorafenib (5 μM), NO-NSAID 500 μM): 22%
NO-NSAID response rate % (average) (HUVEC cells; Selumetinib (5 μM), NO-NSAID 0.1 μM): 38%
NO-NSAID response rate % (average) (HUVEC cells; Selumetinib (5 μM), NO-NSAID 1 μM): 42%
NO-NSAID response rate % (average) (HUVEC cells; [11]): 61%
NO-NSAID response rate % (average) (HUVEC cells; Selumetinib (5 μM), NO-NSAID 500 μM): 26%
NO-NSAID response rate % (average) (HUVEC cells; Sorafenib (5 μM), NO-NSAID 0.1 μM): 20%
NO-NSAID response rate % (average) (HUVEC cells; Sorafenib (5 μM), NO-NSAID 1 μM): 20%
NO-NSAID response rate % (average) (HUVEC cells; [12]): 1%
NO-NSAID response rate % (average) (HUVEC cells; Sorafenib (5 μM), NO-NSAID 500 μM): 3%
NO-NSAID response rate % (average) (HUVEC cells; Sunitinib (5 μM), NO-NSAID 0.1 μM): 20%
NO-NSAID response rate % (average) (HUVEC cells; Sunitinib (5 μM), NO-NSAID 1 μM): 40%
NO-NSAID response rate % (average) (HUVEC cells; [13]): 44%
NO-NSAID response rate % (average) (HUVEC cells; Sunitinib (5 μM), NO-NSAID 500 μM): 31%
responders at 0.5 % [1, 14]: 28.6%
responders at 1 % [1, 14]: 50%
responders at 2.5 % [1, 14]: 71.4%
responders at 5 % [1, 14]: 80%
responders at 2.5 % ([1]; 360 h, Apatinib 105 mg/kg once a day, Days 15): 42.9%
responders at 2.5 % ([1]; 360 h, Encorafenib 80 mg/kg once a day, Days 15): 66.7%
responders at 2.5 % ([1]; 360 h, Lapatinib 120 mg/kg twice a day, Days 15): 60%
responders at 2.5 % ([1]; 360 h, Sunitinib 120 mg/kg once a day, Days 15): 57.1%
responders at 2.5 % ([1]; 384 h, Fruquintinib 40 mg/kg once a day, Days 16): 42.9%
responders at 2.5 % ([1]; 432 h, Anlotinib 20 mg/kg once a day, Days 18): 50%
responders at 2.5 % ([1]; 432 h, Axitinib 50 mg/kg once a day, Days 18): 66.7%
responders at 1 % [1, 15]: 42.9%
responders at 2.5 % [1, 15]: 60%
responders at 5 % [1, 15]: 57.1%
responders at 1 % [1, 16]: 28.6%
responders at 2.5 % [1, 16]: 71.4%
responders at 5 % [1, 16]: 71.4%
responders at 1 % [1, 17]: 40%
responders at 2.5 % [1, 17]: 66.7%
responders at 5 % [1, 17]: 50%
responders at 0.5 % [1, 18]: 50%
responders at 1 % [1, 18]: 71.4%
responders at 2.5 % [1, 18]: 71.4%
responders at 5 % [1, 18]: 83.3%
responders at 2.5 % ([1]; 480 h, Erdafitinib 45 mg/kg once a day, Days 20): 57.1%
responders at 2.5 % ([1]; 480 h, Olmutinib 100 mg/kg once a day, Days 20): 66.7%
